From PubChem BioAssay AID2060903 (Molecular Pharmacology Branch, DTP, NCI, 2025)
Blank lines part the entries; values can stand above or below the compound they belong to.

Test system: 377384-186-R-J1-PDC complex spheroid viability
Experiment: Anticancer human tumor 377384-186-R-J1-PDC patient-derived pancreatic carcinoma cell line growth inhibition [RAS]
Conditions: for IC50: curve of first compound; for viability, T/C: stronger effect = lower value
Procedure, shortened: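 Multi-cell-type spheroids: tumor cells plus HUVEC endothelial cells and mesenchymal stem cells. RAS-pathway inhibitors were combined with targeted agents, each dosed in half-log steps down from clinical Cmax, or from 10 microM when Cmax was unknown.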

[1] = second compound 0.0316 µM, first compound 0.0316 µM
[2] = second compound 0.0316 µM, first compound 0.1 µM
[3] = second compound 0.0316 µM, first compound 0.316 µM
[4] = second compound 0.0316 µM, first compound 1 µM
[5] = second compound 0.0316 µM, first compound 3.16 µM
[6] = second compound 0.0316 µM, first compound 10 µM
[7] = second compound 0.1 µM, first compound 0.0316 µM
[8] = second compound 0.1 µM, first compound 0.1 µM
[9] = second compound 0.1 µM, first compound 0.316 µM
[10] = second compound 0.1 µM, first compound 1 µM
[11] = second compound 0.1 µM, first compound 3.16 µM
[12] = second compound 0.1 µM, first compound 10 µM
[13] = second compound 0.316 µM, first compound 0.0316 µM
[14] = second compound 0.316 µM, first compound 0.1 µM
[15] = second compound 0.316 µM, first compound 0.316 µM
[16] = second compound 0.316 µM, first compound 1 µM
[17] = second compound 0.316 µM, first compound 3.16 µM
[18] = second compound 0.316 µM, first compound 10 µM
[19] = second compound 1 µM, first compound 0.0316 µM
[20] = second compound 1 µM, first compound 0.1 µM
[21] = second compound 1 µM, first compound 0.316 µM
[22] = second compound 1 µM, first compound 1 µM
[23] = second compound 1 µM, first compound 3.16 µM
[24] = second compound 1 µM, first compound 10 µM
[25] = second compound 3.16 µM, first compound 0.0316 µM
[26] = second compound 3.16 µM, first compound 0.1 µM
[27] = second compound 3.16 µM, first compound 0.316 µM
[28] = second compound 3.16 µM, first compound 1 µM
[29] = second compound 3.16 µM, first compound 3.16 µM
[30] = second compound 3.16 µM, first compound 10 µM
[31] = second compound 10 µM, first compound 0.0316 µM
[32] = second compound 10 µM, first compound 0.1 µM
[33] = second compound 10 µM, first compound 0.316 µM
[34] = second compound 10 µM, first compound 1 µM
[35] = second compound 10 µM, first compound 3.16 µM
[36] = second compound 10 µM, first compound 10 µM
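Further: spheroids exposed to compounds for seven days before readout.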

- IC50 (second compound 0.00316 µM): 2320 nM
- IC50 (second compound 0.01 µM): 2670 nM
- IC50 (second compound 0.0316 µM): 2780 nM
- IC50 (second compound 0.1 µM): 2450 nM
- IC50 (second compound 0.316 µM): 1760 nM
- IC50 (second compound 1 µM): 2060 nM
Compound: CC(C)NCC(C(=O)N1CCN(c2ncnc3c2C(C)CC3O)CC1)c1ccc(Cl)cc1 (stereo not drawn) + C=CC(=O)N1CCN(c2nc(OCC3CCCN3C)nc3c(F)c(-c4nc(N)cc(C)c4C(F)(F)F)c(Cl)cc23)C(C)C1
- viability, T/C (second compound 0.00316 µM, first compound 0.0316 µM): 80.9%
- viability, T/C (second compound 0.00316 µM, first compound 0.1 µM): 95%
- viability, T/C (second compound 0.00316 µM, first compound 0.316 µM): 87.4%
- viability, T/C (second compound 0.00316 µM, first compound 1 µM): 61.7%
- viability, T/C (second compound 0.00316 µM, first compound 3.16 µM): 48.6%
- viability, T/C (second compound 0.00316 µM, first compound 10 µM): 32.6%
- viability, T/C (second compound 0.01 µM, first compound 0.0316 µM): 96.8%
- viability, T/C (second compound 0.01 µM, first compound 0.1 µM): 78.1%
- viability, T/C (second compound 0.01 µM, first compound 0.316 µM): 73.7%
- viability, T/C (second compound 0.01 µM, first compound 1 µM): 63.3%
- viability, T/C (second compound 0.01 µM, first compound 3.16 µM): 46.4%
- viability, T/C (second compound 0.01 µM, first compound 10 µM): 35.9%
- viability, T/C [1]: 91.3%
- viability, T/C [2]: 96.7%
- viability, T/C [3]: 70%
- viability, T/C [4]: 67.1%
- viability, T/C [5]: 47.4%
- viability, T/C [6]: 38.1%
- viability, T/C [7]: 99.8%
- viability, T/C [8]: 85%
- viability, T/C [9]: 86.5%
- viability, T/C [10]: 58.7%
- viability, T/C [11]: 48.2%
- viability, T/C [12]: 35.5%
- viability, T/C [13]: 89.4%
- viability, T/C [14]: 102%
- viability, T/C [15]: 80.9%
- viability, T/C [16]: 56%
- viability, T/C [17]: 47.8%
- viability, T/C [18]: 35%
- viability, T/C [19]: 91.8%
- viability, T/C [20]: 97%
- viability, T/C [21]: 75.1%
- viability, T/C [22]: 61.7%
- viability, T/C [23]: 44.4%
- viability, T/C [24]: 32.8%

- IC50 (second compound 0.0316 µM): < 31.6 nM
- IC50 (second compound 0.1 µM): < 31.6 nM
- IC50 (second compound 0.316 µM): < 31.6 nM
- IC50 (second compound 1 µM): < 31.6 nM
- IC50 (second compound 3.16 µM): < 31.6 nM
- IC50 (second compound 10 µM): < 31.6 nM
Compound: C[C@@H](NC(=O)c1ncnc(N)c1Cl)c1ncc(C(=O)Nc2cc(C(F)(F)F)c(Cl)cn2)s1 + C#Cc1c(F)ccc2cc(O)cc(-c3ncc4c(N5CC6CCC(C5)N6)nc(OCC56CCCN5CC(F)C6)nc4c3F)c12
- viability, T/C [1]: 30.5%
- viability, T/C [2]: 27.9%
- viability, T/C [3]: 30%
- viability, T/C [4]: 31.1%
- viability, T/C [5]: 30.3%
- viability, T/C [6]: 27.2%
- viability, T/C [7]: 14.6%
- viability, T/C [8]: 16.2%
- viability, T/C [9]: 14.1%
- viability, T/C [10]: 19.3%
- viability, T/C [11]: 16.2%
- viability, T/C [12]: 14.4%
- viability, T/C [13]: 7.93%
- viability, T/C [14]: 8.44%
- viability, T/C [15]: 10.6%
- viability, T/C [16]: 9.52%
- viability, T/C [17]: 11.1%
- viability, T/C [18]: 10.5%
- viability, T/C [19]: 4.26%
- viability, T/C [20]: 5.19%
- viability, T/C [21]: 5.9%
- viability, T/C [22]: 8.08%
- viability, T/C [23]: 8.4%
- viability, T/C [24]: 6.52%
- viability, T/C [25]: 3.23%
- viability, T/C [26]: 2.84%
- viability, T/C [27]: 2.97%
- viability, T/C [28]: 3.77%
- viability, T/C [29]: 4.25%
- viability, T/C [30]: 4.87%
- viability, T/C [31]: 2.04%
- viability, T/C [32]: 1.21%
- viability, T/C [33]: 1.76%
- viability, T/C [34]: 2.5%
- viability, T/C [35]: 3.8%
- viability, T/C [36]: 1.16%

- IC50 (second compound 0.000949 µM): < 31.6 nM
- IC50 (second compound 0.003 µM): < 31.6 nM
- IC50 (second compound 0.00949 µM): < 31.6 nM
- IC50 (second compound 0.03 µM): < 31.6 nM
- IC50 (second compound 0.0949 µM): < 31.6 nM
- IC50 (second compound 0.3 µM): < 31.6 nM
Compound: NC1c2ccccc2OC12CCN(c1cnc3c(N4CCCc5ncccc54)n[nH]c3n1)CC2 (stereo not drawn) + CCn1c(-c2cc(N3CCN(C)CC3)cnc2C(C)OC)c2c3cc(ccc31)-c1csc(n1)CC(NC(=O)C1CC1C)C(=O)N1CCCC(N1)C(=O)OCC(C)(C)C2
- viability, T/C (second compound 0.000949 µM, first compound 0.0316 µM): 5.69%
- viability, T/C (second compound 0.000949 µM, first compound 0.1 µM): 3.23%
- viability, T/C (second compound 0.000949 µM, first compound 0.316 µM): 1.88%
- viability, T/C (second compound 0.000949 µM, first compound 1 µM): 1.71%
- viability, T/C (second compound 0.000949 µM, first compound 3.16 µM): 1.35%
- viability, T/C (second compound 0.000949 µM, first compound 10 µM): 0.78%
- viability, T/C (second compound 0.003 µM, first compound 0.0316 µM): 2.74%
- viability, T/C (second compound 0.003 µM, first compound 0.1 µM): 1.37%
- viability, T/C (second compound 0.003 µM, first compound 0.316 µM): 1.06%
- viability, T/C (second compound 0.003 µM, first compound 1 µM): 0.67%
- viability, T/C (second compound 0.003 µM, first compound 3.16 µM): 0.28%
- viability, T/C (second compound 0.003 µM, first compound 10 µM): 0.2%
- viability, T/C (second compound 0.00949 µM, first compound 0.0316 µM): 1.78%
- viability, T/C (second compound 0.00949 µM, first compound 0.1 µM): 1.22%
- viability, T/C (second compound 0.00949 µM, first compound 0.316 µM): 0.77%
- viability, T/C (second compound 0.00949 µM, first compound 1 µM): 0.41%
- viability, T/C (second compound 0.00949 µM, first compound 3.16 µM): 1.43%
- viability, T/C (second compound 0.00949 µM, first compound 10 µM): 0.08%
- viability, T/C (second compound 0.03 µM, first compound 0.0316 µM): 2.14%
- viability, T/C (second compound 0.03 µM, first compound 0.1 µM): 1.39%
- viability, T/C (second compound 0.03 µM, first compound 0.316 µM): 1%
- viability, T/C (second compound 0.03 µM, first compound 1 µM): 0.36%
- viability, T/C (second compound 0.03 µM, first compound 3.16 µM): 0.18%
- viability, T/C (second compound 0.03 µM, first compound 10 µM): 0.1%
- viability, T/C (second compound 0.0949 µM, first compound 0.0316 µM): 1.61%
- viability, T/C (second compound 0.0949 µM, first compound 0.1 µM): 1.57%
- viability, T/C (second compound 0.0949 µM, first compound 0.316 µM): 0.67%
- viability, T/C (second compound 0.0949 µM, first compound 1 µM): 0.17%
- viability, T/C (second compound 0.0949 µM, first compound 3.16 µM): 0.13%
- viability, T/C (second compound 0.0949 µM, first compound 10 µM): 0.29%
- viability, T/C (second compound 0.3 µM, first compound 0.0316 µM): 1.41%
- viability, T/C (second compound 0.3 µM, first compound 0.1 µM): 1.04%
- viability, T/C (second compound 0.3 µM, first compound 0.316 µM): 0.5%
- viability, T/C (second compound 0.3 µM, first compound 1 µM): 0.27%
- viability, T/C (second compound 0.3 µM, first compound 3.16 µM): 0.14%
- viability, T/C (second compound 0.3 µM, first compound 10 µM): 0.1%

- IC50 (second compound 0.0316 µM): < 31.6 nM
- IC50 (second compound 0.1 µM): < 31.6 nM
- IC50 (second compound 0.316 µM): < 31.6 nM
- IC50 (second compound 1 µM): < 31.6 nM
- IC50 (second compound 3.16 µM): < 31.6 nM
- IC50 (second compound 10 µM): < 31.6 nM
Compound: Cc1nc(N2CCC3(CC2)COC(C)C3N)c(CO)nc1Sc1ccnc(N)c1Cl (stereo not drawn) + C#Cc1c(F)ccc2cc(O)cc(-c3ncc4c(N5CC6CCC(C5)N6)nc(OCC56CCCN5CC(F)C6)nc4c3F)c12
- viability, T/C [1]: 12.6%
- viability, T/C [2]: 5.6%
- viability, T/C [3]: 3.15%
- viability, T/C [4]: 1.95%
- viability, T/C [5]: 1.57%
- viability, T/C [6]: 0.92%
- viability, T/C [7]: 5.2%
- viability, T/C [8]: 3.07%
- viability, T/C [9]: 1.59%
- viability, T/C [10]: 0.92%
- viability, T/C [11]: 0.97%
- viability, T/C [12]: 0.63%
- viability, T/C [13]: 2.68%
- viability, T/C [14]: 1.49%
- viability, T/C [15]: 0.84%
- viability, T/C [16]: 0.98%
- viability, T/C [17]: 0.78%
- viability, T/C [18]: 0.67%
- viability, T/C [19]: 1.74%
- viability, T/C [20]: 1.54%
- viability, T/C [21]: 1.31%
- viability, T/C [22]: 0.99%
- viability, T/C [23]: 0.81%
- viability, T/C [24]: 0.51%
- viability, T/C [25]: 1.99%
- viability, T/C [26]: 1.51%
- viability, T/C [27]: 1.34%
- viability, T/C [28]: 0.77%
- viability, T/C [29]: 0.8%
- viability, T/C [30]: 0.33%
- viability, T/C [31]: 1.85%
- viability, T/C [32]: 0.91%
- viability, T/C [33]: 0.69%
- viability, T/C [34]: 0.44%
- viability, T/C [35]: 0.38%
- viability, T/C [36]: 0.14%
